Laboratory results reported in patent US7576177B2, “Hsp peptides and analogs for modulation of immune responses via antigen presenting cells” (Andromeda Biotech Ltd., priority 2002, dated 2009).

Tests used:
[1] = tested on: BALB/c DO.11.10 bone marrow cells cultured for dendritic cells, cocultured with DO.11.10 T cells; assay: Education of mouse dendritic cells and stimulation of T-cells, cytokine content of supernatant; format: cell-based; settings: for IFN secretion of T cells / IL-4 secretion of T cells / IL-10 secretion of T cells / IL-12 secretion of T cells: 0.3 nM Ova peptide
Experimental: Whelan et al. (J. Immunol 164, 6453-6460, 2000) addressed the problem in mice by an experiment in which mouse bone marrow cells were grown for 6 days in culture with GM-CSF to give immature dendritic cells. These dendritic cells were then incubated overnight with LPS (known to drive cells to DC1) or with a nematode antigen. The reason for the choice of nematode antigen was that injection of this antigen in vivo gives rise to a Th2 response in animals. After this so-called “education” of the dendritic cells, they were washed and subsequently incubated with naive T cells in the presence of antigenic stimulus. The experiment was possible because of the use of transgenic mice in which all the T cells respond to the same peptide (OVA323-339) which absolves the system from any question of bias of the T cell response at the level of the T cells. Any bias should be a consequence of the “education” of the dendritic cells. After three days of incubation the cytokine responses produced by the T cells, were measured by ELISA. […] In contrast, nematode antigen incubation gave rise to more IL-4 (Th2) than did controls while the LPS incubation inhibited the IL4 response. Therefore, the nematode antigen was said to drive cells to DC2. A similar method was used for testing the compounds of the present invention: • 1. Bone marrow cells were extracted from the leg bones of DO.11.10 mice transgenic for the TcR. All cells from these mice respond to the OVA peptide ([…]). • 2. Bone marrow cells were plated at 10^6 cells/ml in 100 mm diameter tissue culture petri dishes in Iscove's medium supplemented with 10% FCS, […], 1 mM sodium pyruvate, penicillin/streptomycin (according to manufacturer's recommendations), non-essential amino acids, 50 μM β-mercaptoethanol and 10 ng/ml mGM-CSF. • 3. After 4 days, the medium was carefully removed and replaced with fresh medium • 4. After 6 days, the non-adherent cells were harvested and used as immature dendritic cells • 5. The immature dendritic cells are plated at 1×10^6 cells/ml, 1 ml/well in 24 well plates in the above medium with various reagents added at various concentrations and incubated overnight. This is the stage in which the dendritic cells are “educated” • 6. The next day the cells were harvested and washed 3 times then resuspended at 5×10^4 cells/ml in 1 ml of the above medium but without the addition of GM-CSF to be cocultured with T cells • 7. […] 5×10^5 T cells were cultured with the dendritic cells from step 6 in the presence of various concentrations of the OVA peptide (0, 0.3 nM, 3 nM and 30 nM). • 9. After 3 days PMA (50 ng/ml) and ionomycin (500 ng/ml) were added to further stimulate the cells. • 10. The next day the cell supernatants were collected and assayed for cytokine content (Interferon γ, IL4, IL-10 and IL-12).
The compound was tested for stimulation of DO.11.10 bone marrow cells according to the assay described above (Production and education of mouse dendritic cells and stimulation of T-cells).
BALB/c DO.11.10 bone marrow cells were cultured for dendritic cells and then stimulated with LPS 1 μg/ml, LPS 10 μg/ml, hsp60 3 μg/ml, hsp60 10 μg/ml, p277 5 μg/ml and p277 50 μg/ml. The cells were then transferred to wells with T cells from fresh BALB/c DO.11.10 mice and stimulated with OVA peptide at different concentrations (0, 0.3 nM, 3 nM, 30 nM). Supernatant was collected after 48 hours for assay. 30 μl was taken for IFN, 40 μl for IL4 and IL-10 and 50 μl for IL-12 assays. The results are presented in the following tables, as amount of cytokine (pg/ml), and in FIG. 1.

J774 cells = settings: 48 hours
Experimental: Nitric oxide is a proinflammatory mediator produced by macrophages. The classic stimulus for nitric oxide production is lipopolysaccharide (LPS). Other molecules derived from pathogens such as hsp60 also induce macrophages to produce nitric oxide. Nitric oxide is usually produced by cells in conjunction with TNFα, IL-1 and IL-6.
The effect of p277(Val^6-Val^11) was tested on the production of nitric oxide from a macrophage cell line both the direct effect and the effect of p277(Val^6-Val^11) on the nitric oxide produced in response to hsp60.
The assay method is described in full in WO 01/43691. Briefly, J774 cells (2×10^5 cells/assay) were incubated for 48 hours with LPS, hsp60 or p277(Val^6-Val^11) or in inhibition assay, the cells were incubated with hsp60 at various concentrations in the presence or absence of 20 μg/ml p277(Val^6-Val^11). After 48 hours the supernatant was collected and tested for nitric oxide. The test for nitric oxide is performed by mixing an equal volume of the cell supernatant with Griess reagent and measuring the resultant color at 550 nm.

[2] = dendritic cells educated with 5 μg/ml
[3] = dendritic cells educated with 50 μg/ml

VLGGGVALLRVIPALDSLTPANED [p277(Val^6-Val^11)]
IL-4 produced by T cells after exposure of dendritic cells (in words) ([1]; compared with non-exposed dendritic cells): more IL-4 than non-exposed dendritic cells
IFN secretion of T cells [1, 2]: 722.22 pg/mL
IL-4 secretion of T cells [1, 2]: 36.96 pg/mL
IL-10 secretion of T cells [1, 2]: 32.53 pg/mL
IL-12 secretion of T cells [1, 2]: 177.50 pg/mL
IFN secretion of T cells [1, 3]: 373.89 pg/mL
IL-4 secretion of T cells [1, 3]: 82.29 pg/mL
IL-10 secretion of T cells [1, 3]: 27.15 pg/mL
IL-12 secretion of T cells [1, 3]: 82.50 pg/mL
direct stimulation of nitric oxide production (J774 cells): Under no conditions did the peptide stimulate nitric oxide production
inhibition of hsp60 induced nitric oxide (J774 cells; hsp60 at various concentrations with 20 μg/ml peptide): Neither did it inhibit the hsp60 induced nitric oxide produced
